Test results: publication PMC11054303, “Design and Synthesis of Novel N-Benzylidene Derivatives of 3-Amino-4-imino-3,5-dihydro-4H-chromeno[2,3-d]pyrimidine under Microwave, In Silico ADME Predictions, In Vitro Antitumoral Activities and In Vivo Toxicity” (Pharmaceuticals, 2024)
Entries after “also recorded” stand apart in the source; their conditions may differ.

Legend:
[1] = tested on: Store-Operated Ca^+2 Entry (SOCE); assay: SOCE and Ca2+ release assay in B cell line (PLP cell line); format: cell-based; conditions: same protocol
Description: Thapsigargin (TG), an inhibitor of endoplasmic reticulum Ca^+2-ATPase, is used to deplete intracellular calcium stores in a Ca^+2-free solution and therefore activate SOCE. […] In the context of a preliminary exploration of the functional effects of our molecules of interest and in the absence of a significant inhibition at a low concentration of compound 10h on the reference cell line we used (HEK293) no further exploration of the modulatory effect of this compound on cancer cell lines was initiated.

MDA MB231 = assay: Antiproliferative assay, MDA MB231; format: cell-based, human
Description: (§1) The potential antiproliferative activity of these novel 3-(N-phenylmethyliden)amino-4-imino-3,5-dihydro-4H-chromeno[2,3-d]pyrimidine 10(a-i) and 10-(N-phenylmethyliden)amino-11-imino-11H-naphto[1′,2′:5,6]pyrano[2,3-d]pyrimidine 10(j-l) was evaluated in a panel of eight tumoral cell lines and in diploid skin fibroblasts used as normal cell lines for control. For these antitumor assays, chosen cell lines represent diverse types of human cancer, which are, respectively, human hepatocellular carcinoma (Huh7 D12), human colon adenocarcinoma (Caco2), human breast adenocarcinoma (MDA-MB231), MDA-MB468 for human breast carcinoma which correspond to the Triple Negative Breast Cancer (TNBC), human colon carcinoma (HCT116), PC3 as cell line initiated from bone metastasis of grade IV prostatic adenocarcinoma from a person, MCF7 as breast cancer line isolated from a person and PANC1, as human pancreatic cancer cell line. The potential antiproliferative activity was preliminarily evaluated in vitro at a 25 μM single dose.
(§2) The IC50 was calculated from the full dose-response curve and used as a parameter for the antiproliferative activity of the new compounds.
(§3) Skin diploid fibroblastic cells were provided by BIOPREDIC International Company (Rennes, France). Huh-7D12 (Ref ECACC: 01042712), Caco2 (Ref ECACC: 86010202), MDA-MB-231 (Ref ECACC: 92020424), MDA-MB-468, HCT-116 (Ref ECACC: 91091005), PC3 (Ref ECACC: 90112714), and MCF7 cell lines were obtained from the ECACC collection. PANC1 cell lines, a generous gift of LBAI Inserm 1227 (Brest, France). Cells were grown according to ECACC recommendations in DMEM for Huh-D12, MDA-MB-231, MDA-MB-468 and fibroblast, in EMEM for Caco2, in McCoy’s for HCT-116 and RPMI for PC3 at 37 °C and 5% CO2. All culture media with 10% of FBS, 1% of penicillin-streptomycin and 2 mM glutamine.
(§4) Chemicals were solubilized in DMSO at a concentration of 10 mM (stock solution) and diluted in a culture medium to the desired final concentrations. […] The toxicity test of the chemicals on these cells was as follows: 2 × 10^3 cells for HCT-116 cells or 4 × 10^3 for the other cells were seeded in 96-multi-well plates in triplicate and left for 24 h for attachment, spreading and growing. Then, cells were exposed for 48 h to increasing concentrations of chemicals, ranging from 0.1 μM to 25 μM, in a final volume of 120 μL of culture medium. After 48 h of treatment, cells were washed in PBS and fixed in a cooled 90% ethanol/5% acetic acid solution for 20 min. The nuclei were stained with Hoechst 3342 (B2261 Merck Sigma-Aldrich) and counted. Image acquisition and analysis were performed using automated imaging analysis with a Cellomics Arrayscan VTI/HCS Reader (Thermo/Scientific, Waltham, MA, USA). The survival percentages were calculated as the percentage of cell number after chemical treatment over cell number after DMSO treatment. The IC50 was graphically determined.

[2] = tested on: zebrafish Danio rerio embryos; assay: Angiogenesis of vessels in mCherry transgenic zebrafish embryos; format: in vivo
Description: Another interest of zebrafish Danio rerio is the possibility to deeply evaluate the effects of angiogenic compounds. In our model, the formation of most vessels is complete, the circulation is present, and the heart is beating after 28 hpf of development. Angiogenesis begins in the somites and in the anterior portion of the embryos. Many zebrafish blood vessels form by angiogenic sprouting and appear to require the same proteins required for blood vessel growth in mammals. By using the mCherry line transgenic zebrafish, it is possible to analyze the direct effect of a compound on the angiogenesis of dorsal vessels. Zebrafish embryos can survive up to a week without an intact circulatory system because defective vessel formation has no immediate lethal effect.
These experiments were performed in four technical replicates.

PC3 = assay: Antiproliferative assay, PC3; format: cell-based, human
Description: as §1, §2, §3, §4

Fibroblasts = assay: Antiproliferative assay, diploid skin fibroblasts (normal cells); format: cell-based; conditions: Fibroblast; 48 h incubation; average of three assays, standard error ± 0.5 μM
Description: as §1, §2, §3, §4

Caco2 = assay: Antiproliferative assay, Caco2; format: cell-based, human; conditions: Homo sapiens, Caco-2; 48 h incubation; average of three assays, standard error ± 0.5 μM
Description: as §1, §2, §3, §4

[3] = Antiproliferative assay, Caco2; format: cell-based, human; conditions: human, Caco-2; SI = IC50 fibroblasts/IC50 on Caco2; read-out: Selectivity Index (SI) Caco2
Description: as §1, §2, §3, §4

MCF7 = assay: Antiproliferative assay, MCF7; format: cell-based, human
Description: as §1, §2, §3, §4

Huh7 D12 = assay: Antiproliferative assay, Huh7 D12; format: cell-based, human
Description: as §1, §2, §3, §4

MDA MB468 = assay: Antiproliferative assay, MDA MB468; format: cell-based, human
Description: as §1, §2, §3, §4

SMILES: COc1cccc2c1Oc1ncn(/N=C/c3ccccc3O)c(=N)c1C2 [10h, (3E) 3-N-(2-Hydroxyphenylmethylidene)amino-4-imino-9-methoxy-3,5-dihydro-4H-chromeno[2,3-d]pyrimidine]
- inhibitory effects on SOCE and Ca2+ release [1]: without detecting any inhibitory effects on SOCE and Ca^2+ release; also recorded: no inhibitory effects on SOCE and Ca^+2 release
- IC50 (MDA MB231; Homo sapiens, MDA-MB-231, 48 h incubation, average of three assays, standard error ± 0.5 μM): 300 nM
- Selectivity Index (SI) MDA MB231 (MDA MB231; SI = IC50 fibroblasts/IC50 on MDA MB231): > 83.3
- effect on vessel angiogenesis ([2]; 5 μM dose at 72 hpf): no angiogenic effect; also recorded: cannot observe an anti-angiogenic effect; also recorded: without delay in vessel angiogenesis
- effect on vessel angiogenesis ([2]; 48 and 72 hpf treatment, up to 5 μM): without delay in vessel angiogenesis
- IC50 (PC3; Homo sapiens, PC-3, 48 h incubation, average of three assays, standard error ± 0.5 μM): 240 nM
- Selectivity Index (SI) PC3 (PC3; SI = IC50 fibroblasts/IC50 on PC3): > 104.2
- IC50 (Fibroblasts): > 25000 nM
- IC50 (Caco2): 300 nM
- selectivity ratio at 48 h [3]: > 83.3
- IC50 (MCF7; Homo sapiens, MCF7, 48 h incubation, average of three assays, standard error ± 0.5 μM): 270 nM
- Selectivity Index (SI) MCF7 (MCF7; SI = IC50 fibroblasts/IC50 on MCF7): > 92.6
- IC50 (Huh7 D12; Homo sapiens, Huh-7D12, 48 h incubation, average of three assays, standard error ± 0.5 μM): 230 nM
- Selectivity Index (SI) Huh7 D12 (Huh7 D12; SI = IC50 fibroblasts/IC50 on Huh7 D12): > 108.7
- IC50 (MDA MB468; Homo sapiens, MDA-MB-468, 48 h incubation, average of three assays, standard error ± 0.5 μM): 240 nM
- Selectivity Index (SI) MDA MB468 (MDA MB468; SI = IC50 fibroblasts/IC50 on MDA MB468): > 104.2
